Measurements as given in US20240365781A1, “SYNERGISTICALLY EFFECTIVE HERBICIDE COMPOSITION COMPRISING PELARGONIC ACID AND FLAZASULFURON” (Belchim Crop Protection NV, priority 2017, published 2024).

Experiments:
Type in all cases: in vivo
[1] = test system: Erodium cicuta; assay: post-emergence test, field trial (Examples 1-5); conditions: 28 d, FT; pelargonic acid 5440 g/ha, flazasulfuron 50 g/ha; 8 L/ha
Text: (§1) The expected activity of a given combination of two or three herbicides can be calculated as follows according to a calculation method by Colby (cf. COLBY, S. R.: “Calculating synergistic and antagonistic responses of herbicide combinations”, • Weeds 15, pages 20-22, 1967): • If X=% damage by herbicide (A) at an application rate of m g/ha, • Y=% damage by herbicide (B) at an application rate of n g/ha, • E=the expected damage by herbicides (A) and (B) at application rates of m and n […] and, • then for a combination:
(§2) Individual compositions comprising pelargonic acid or flazasulfuron are compared with a herbicide composition according to the invention comprising pelargonic acid and flazasulfuron.
(§3) Herbicidal activity was determined by performing a post-emergence test. […] The corresponding mixture was in the form of a spray liquor. Besides, spray liquors of individual compositions comprising pelargonic acid or flazasulfuron were used.
(§4) Tests were performed on test fields (field trials) or in pots (pot trials).

[2] = test system: Echinochloa crusgalli; assay: post-emergence test, field trial (Examples 1-5); conditions: FT
Text: as §1, §2, §3, §4

[3] = test system: Chenopodium album; assay: post-emergence test, field trial (Examples 1-5); conditions: FT
Text: as §1, §2, §3, §4

[4] = test system: Convolvulus arvensis L.; assay: post-emergence test, field trial (Examples 1-5); conditions: 3 d, FT; pelargonic acid 5440 g/ha, flazasulfuron 50 g/ha; 8 L/ha
Text: as §1, §2, §3, §4

[5] = test system: Anagallis arvensis; assay: post-emergence test, field trial (Examples 1-5); conditions: 3 d, FT; pelargonic acid 5440 g/ha, flazasulfuron 50 g/ha; 8 L/ha
Text: as §1, §2, §3, §4

[6] = test system: Sonchus oleraceus L.; assay: post-emergence test, field trial (Examples 1-5); conditions: FT, pelargonic acid 5440 g/ha, flazasulfuron 50 g/ha, 8 L/ha
Text: as §1, §2, §3, §4

[7] = test system: Festuca ovina; assay: post-emergence test, field trial (Examples 1-5); conditions: FT
Text: as §1, §2, §3, §4

[8] = test system: Digitaria sang; assay: post-emergence test, field trial (Examples 1-5); conditions: FT, pelargonic acid 5440 g/ha, flazasulfuron 50 g/ha, 8 L/ha
Text: as §1, §2, §3, §4

[9] = test system: Plantago major; assay: post-emergence test, field trial (Examples 1-5); conditions: FT
Text: as §1, §2, §3, §4

[10] = test system: Veronica persica; assay: post-emergence test, field trial (Examples 1-5); conditions: FT, pelargonic acid 5440 g/ha, flazasulfuron 50 g/ha, 8 L/ha
Text: as §1, §2, §3, §4

[11] = test system: Lolium sp.; assay: post-emergence test, field trial (Examples 1-5); conditions: 7 d, FT; pelargonic acid 5440 g/ha, flazasulfuron 50 g/ha; 8 L/ha
Text: as §1, §2, §3, §4

[12] = test system: Setaria viridis; assay: post-emergence field trial under rows of apple trees, 150-200 L water/ha (Examples 10-12); conditions: 20 g of active compound/ha
Procedure: Herbicidal activity was determined by performing a post-emergence test. […] The corresponding mixture was in the form of a spray solution. Besides, spray solutions of individual compositions comprising pelargonic acid or flazasulfuron were used.
The spray solution was applied on plants of unwanted vegetation present on fields where perennial crops were grown.
After 5 to 88 days after application of the spray solution, the degree of damage to the unwanted vegetation is rated in % of plants of unwanted vegetation that were killed. Tests were performed on test fields (field trials).

[13] = 3 d, pelargonic acid 10880 g/ha, flazasulfuron 25 g/ha, 16 L/ha
[14] = 3 d, pelargonic acid 21760 g/ha, flazasulfuron 25 g/ha, 32 L/ha
[15] = 7 d, pelargonic acid 10880 g/ha, flazasulfuron 25 g/ha, 16 L/ha
[16] = 7 d, pelargonic acid 10880 g/ha, flazasulfuron 50 g/ha, 16 L/ha
[17] = 7 d, pelargonic acid 21760 g/ha, flazasulfuron 50 g/ha, 32 L/ha
[18] = 13 d, pelargonic acid 10880 g/ha, flazasulfuron 25 g/ha, 16 L/ha
[19] = 13 d, pelargonic acid 10880 g/ha, flazasulfuron 50 g/ha, 16 L/ha
[20] = 13 d, pelargonic acid 21760 g/ha, flazasulfuron 25 g/ha, 32 L/ha
[21] = 13 d, pelargonic acid 21760 g/ha, flazasulfuron 50 g/ha, 32 L/ha
[22] = 23 d, pelargonic acid 10880 g/ha, flazasulfuron 25 g/ha, 16 L/ha
[23] = 23 d, pelargonic acid 10880 g/ha, flazasulfuron 50 g/ha, 16 L/ha
[24] = 23 d, pelargonic acid 21760 g/ha, flazasulfuron 25 g/ha, 32 L/ha
[25] = 23 d, pelargonic acid 21760 g/ha, flazasulfuron 50 g/ha, 32 L/ha
[26] = 30 d, pelargonic acid 10880 g/ha, flazasulfuron 25 g/ha, 16 L/ha
[27] = 30 d, pelargonic acid 21760 g/ha, flazasulfuron 25 g/ha, 32 L/ha
[28] = 38 d, pelargonic acid 10880 g/ha, flazasulfuron 25 g/ha, 16 L/ha
[29] = 38 d, pelargonic acid 21760 g/ha, flazasulfuron 25 g/ha, 32 L/ha
[30] = 3 d, pelargonic acid 10880 g/ha, flazasulfuron 50 g/ha, 16 L/ha
[31] = 3 d, pelargonic acid 21760 g/ha, flazasulfuron 50 g/ha, 32 L/ha
[32] = 7 d, pelargonic acid 21760 g/ha, flazasulfuron 25 g/ha, 32 L/ha
[33] = 30 d, pelargonic acid 10880 g/ha, flazasulfuron 50 g/ha, 16 L/ha
[34] = 30 d, pelargonic acid 21760 g/ha, flazasulfuron 50 g/ha, 32 L/ha
[35] = 38 d, pelargonic acid 10880 g/ha, flazasulfuron 50 g/ha, 16 L/ha
[36] = 38 d, pelargonic acid 21760 g/ha, flazasulfuron 50 g/ha, 32 L/ha

## COc1cc(OC)nc(NC(=O)NS(=O)(=O)c2ncccc2C(F)(F)F)n1 [Flazasulfuron, 1-(4,6-dimethoxypyrimidin-2-yl)-3-(3-trifluoromethyl-2-pyridylsulfonyl)urea]
[1]
  herbicidal effect: 95%
[2]; 3 d, pelargonic acid 5440 g/ha, flazasulfuron 50 g/ha, 8 L/ha
  herbicidal effect: 2.5%
[2]; [13]
  herbicidal effect: 0%
[2]; [14]
  herbicidal effect: 0%
[2]; 7 d, pelargonic acid 5440 g/ha, flazasulfuron 50 g/ha, 8 L/ha
  herbicidal effect: 13.3%
[2]; [15]
  herbicidal effect: 40%
[2]; [16]
  herbicidal effect: 20%
[2]; [17]
  herbicidal effect: 20%
[2]; 12 d, pelargonic acid 5440 g/ha, flazasulfuron 50 g/ha, 8 L/ha
  herbicidal effect: 37.3%
[2]; [18]
  herbicidal effect: 40%
[2]; [19]
  herbicidal effect: 30%
[2]; [20]
  herbicidal effect: 40%
[2]; [21]
  herbicidal effect: 30%
[2]; [22]
  herbicidal effect: 40%
[2]; [23]
  herbicidal effect: 0%
[2]; [24]
  herbicidal effect: 40%
[2]; [25]
  herbicidal effect: 0%
[2]; 26 d, pelargonic acid 5440 g/ha, flazasulfuron 50 g/ha, 8 L/ha
  herbicidal effect: 99%
[2]; [26]
  herbicidal effect: 90%
[2]; [27]
  herbicidal effect: 90%
[2]; [28]
  herbicidal effect: 90%
[2]; [29]
  herbicidal effect: 90%
[2]; 72 d, pelargonic acid 5440 g/ha, flazasulfuron 50 g/ha, 8 L/ha
  herbicidal effect: 96.3%
[3]; [13]
  herbicidal effect: 10%
[3]; [30]
  herbicidal effect: 15%
[3]; [14]
  herbicidal effect: 10%
[3]; [31]
  herbicidal effect: 15%
[3]; [15]
  herbicidal effect: 40%
[3]; [16]
  herbicidal effect: 0%
[3]; [32]
  herbicidal effect: 40%
[3]; [17]
  herbicidal effect: 0%
[3]; [18]
  herbicidal effect: 15%
[3]; [19]
  herbicidal effect: 0%
[3]; [20]
  herbicidal effect: 15%
[3]; [21]
  herbicidal effect: 0%
[3]; [22]
  herbicidal effect: 20%
[3]; [24]
  herbicidal effect: 20%
[3]; [25]
  herbicidal effect: 0%
[3]; [26]
  herbicidal effect: 20%
[3]; [33]
  herbicidal effect: 0%
[3]; [27]
  herbicidal effect: 20%
[3]; [34]
  herbicidal effect: 0%
[3]; [28]
  herbicidal effect: 20%
[3]; [35]
  herbicidal effect: 0%
[3]; [29]
  herbicidal effect: 20%
[3]; [36]
  herbicidal effect: 0%
[4]
  herbicidal effect: 0%
[5]
  herbicidal effect: 1.3%
[6]; 3 d
  herbicidal effect: 0%
[6]; 7 d
  herbicidal effect: 0%
[6]; 13 d
  herbicidal effect: 2.5%
[6]; 28 d
  herbicidal effect: 12.5%
[6]; 58 d
  herbicidal effect: 10%
[7]; [13]
  herbicidal effect: 0%
[7]; [14]
  herbicidal effect: 0%
[7]; [15]
  herbicidal effect: 30%
[7]; [16]
  herbicidal effect: 20%
[7]; [32]
  herbicidal effect: 30%
[7]; [17]
  herbicidal effect: 20%
[7]; [18]
  herbicidal effect: 30%
[7]; [19]
  herbicidal effect: 20%
[7]; [20]
  herbicidal effect: 30%
[7]; [21]
  herbicidal effect: 20%
[7]; [22]
  herbicidal effect: 75%
[7]; [23]
  herbicidal effect: 0%
[7]; [24]
  herbicidal effect: 75%
[7]; [25]
  herbicidal effect: 0%
[7]; [26]
  herbicidal effect: 75%
[7]; [27]
  herbicidal effect: 75%
[7]; [28]
  herbicidal effect: 80%
[7]; [29]
  herbicidal effect: 80%
[8]; 3 d
  herbicidal effect: 2.5%
[8]; 7 d
  herbicidal effect: 13.3%
[8]; 12 d
  herbicidal effect: 37.3%
[8]; 72 d
  herbicidal effect: 3.8%
[9]; [13]
  herbicidal effect: 0%
[9]; [30]
  herbicidal effect: 10%
[9]; [31]
  herbicidal effect: 10%
[9]; [15]
  herbicidal effect: 25%
[9]; [16]
  herbicidal effect: 0%
[9]; [32]
  herbicidal effect: 25%
[9]; [17]
  herbicidal effect: 0%
[9]; [18]
  herbicidal effect: 10%
[9]; [19]
  herbicidal effect: 20%
[9]; [20]
  herbicidal effect: 10%
[9]; [21]
  herbicidal effect: 20%
[9]; [24]
  herbicidal effect: 10%
[9]; [25]
  herbicidal effect: 0%
[9]; [26]
  herbicidal effect: 35%
[9]; [33]
  herbicidal effect: 0%
[9]; [27]
  herbicidal effect: 35%
[9]; [34]
  herbicidal effect: 0%
[9]; [28]
  herbicidal effect: 10%
[9]; [35]
  herbicidal effect: 10%
[9]; [29]
  herbicidal effect: 10%
[9]; [36]
  herbicidal effect: 10%
[10]; 3 d
  herbicidal effect: 2.5%
[10]; 7 d
  herbicidal effect: 7.5%
[10]; 56 d
  herbicidal effect: 16.3%
[11]
  herbicidal effect: 2.5%
[12]; Setaria viridis/6 d
  herbicidal effect (%): 10%
[12]; Setaria viridis/16 d
  herbicidal effect (%): 50%
[12]; Setaria viridis/30 d
  herbicidal effect (%): 55%
[12]; Setaria viridis/57 d
  herbicidal effect (%): 53%
[12]; Setaria viridis/78 d
  herbicidal effect (%): 43%
